According to patent publication USRE48335E1, “Polymyxin derivatives as antimicrobial compounds” (priority 2014, dated 2020):
Where two headings read alike, the source gives them in different places. Positions of bridges follow the written chain, without caps; N, C: chain ends. Non-standard residues stand in square brackets, D forms with d. Residues, ends and D or L forms follow the SMILES beside them. *: point of attachment. Hydrocinnamoyl = O=C(CCc1ccccc1)*; X41 = O=S(=O)(c1ccc(Cl)cc1Cl)*; X3 = O=C(c1ccc(Cl)cc1Cl)*; Octanoyl = CCCCCCCC(=O)*; Orn = NCCC[C@H](N)C(=O)O; Dab = NCC[C@H](N)C(=O)O; Abu = CC[C@H](N)C(=O)O; Dap = NC[C@H](N)C(=O)O

Key:
[1] = tested on: Acinetobacter baumannii
In short: (§1)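 MICs were determined for the lipopeptides, tested as trifluoroacetic acid salts, by broth microdilution in cation-adjusted Mueller-Hinton broth following CLSI standards (M100-S18). Polymyxin B sulphate served as the control.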

[2] = tested on: Enterobacter cloacae
In short: as §1

[3] = tested on: Pseudomonas aeruginosa
In short: as §1

[4] = Acinetobacter baumannii ATCC 17978, broth microdilution in CAMHB, TFA salt
[5] = Acinetobacter baumannii ATCC 19606, broth microdilution in CAMHB, TFA salt
[6] = Acinetobacter baumannii FADDI-AB034, broth microdilution in CAMHB, TFA salt
[7] = Enterobacter cloacae FADDI-EC001, broth microdilution in CAMHB, TFA salt
[8] = Enterobacter cloacae FADDI-EC003, broth microdilution in CAMHB, TFA salt
[9] = Enterobacter cloacae FADDI-EC006, broth microdilution in CAMHB, TFA salt
[10] = Pseudomonas aeruginosa ATCC 27853, broth microdilution in CAMHB, TFA salt
[11] = Pseudomonas aeruginosa FADDI-PA022, broth microdilution in CAMHB, TFA salt
[12] = Pseudomonas aeruginosa FADDI-PA025, broth microdilution in CAMHB, TFA salt

Row | Molecule | Minimum inhibitory concentration (MIC), Ab ATCC 17978 [1, 4] [µg/mL] | Minimum inhibitory concentration (MIC), Ab ATCC 19606 [1, 5] [µg/mL] | Minimum inhibitory concentration (MIC), Ab FADDI-AB034 [1, 6] [µg/mL] | Minimum inhibitory concentration (MIC), Ec FADDI-EC001 [2, 7] [µg/mL] | Minimum inhibitory concentration (MIC), Ec FADDI-EC003 [2, 8] [µg/mL] | Minimum inhibitory concentration (MIC), Ec FADDI-EC006 [2, 9] [µg/mL] | Minimum inhibitory concentration (MIC), Pa ATCC 27853 [3, 10] [µg/mL] | Minimum inhibitory concentration (MIC), Pa FADDI-PA022 [3, 11] [µg/mL] | Minimum inhibitory concentration (MIC), Pa FADDI-PA025 [3, 12] [µg/mL] | further results
1 | CC[C@@H]1NC(=O)[C@@H](CC(C)C)NC(=O)[C@H](CCN)NC(=O)[C@@H](NC(=O)[C@H](CN)NC(=O)[C@@H](NC(=O)[C@H](CCN)NC(=O)CCc2ccccc2)[C@@H](C)O)CCNC(=O)[C@H]([C@@H](C)O)NC(=O)[C@H](CCN)NC(=O)[C@H](CCN)NC1=O [Compound 145] (Hydrocinnamoyl-[Dab]T[Dap][Dab][Dab][dL][Abu][Dab][Dab]T; lactam 4-C) | 0.5 | 1 | 0.5 | 0.5 | <0.125 | <0.125 | 0.5 | 0.5 | 1 | 
2 | CC[C@@H]1NC(=O)[C@@H](CC(C)C)NC(=O)[C@H](CCN)NC(=O)[C@@H](NC(=O)[C@H](CCCN)NC(=O)[C@@H](NC(=O)[C@H](CCN)NC(=O)c2ccc(Cl)cc2Cl)[C@@H](C)O)CCNC(=O)[C@H]([C@@H](C)O)NC(=O)[C@H](CCN)NC(=O)[C@H](CCN)NC1=O [Compound 147] (X3-[Dab]T[Orn][Dab][Dab][dL][Abu][Dab][Dab]T; lactam 4-C) | 4 | 4 | 2 | <0.125 | 1 | 1 | 1 | 1 | >32 | 
3 | CC[C@@H]1NC(=O)[C@@H](CC(C)C)NC(=O)[C@H](CCN)NC(=O)[C@@H](NC(=O)[C@H](CN)NC(=O)[C@@H](NC(=O)[C@H](CCN)NS(=O)(=O)c2ccc(Cl)cc2Cl)[C@@H](C)O)CCNC(=O)[C@H]([C@@H](C)O)NC(=O)[C@H](CCN)NC(=O)[C@H](CCN)NC1=O [Compound 148] (X41-[Dab]T[Dap][Dab][Dab][dL][Abu][Dab][Dab]T; lactam 4-C) | 0.5 | 2 | 1 | 2 | 4 | 1 | 1 | 1 | 16 | 
4 | CCCCCCCC(=O)N[C@@H](CCN)C(=O)N[C@H](C(=O)N[C@@H](CCN)C(=O)N[C@H]1CCCNC(=O)[C@H]([C@@H](C)O)NC(=O)[C@H](CCN)NC(=O)[C@H](CCN)NC(=O)[C@H]([C@@H](C)O)NC(=O)[C@@H](CC(C)C)NC(=O)[C@H](CCN)NC1=O)[C@@H](C)O [Compound 149] (Octanoyl-[Dab]T[Dab][Orn][Dab][dL]T[Dab][Dab]T; lactam 4-C) |  |  |  |  |  |  |  |  |  | Minimum inhibitory concentration (MIC), Ab ATCC 17978 [1]: >32 µg/mL; Minimum inhibitory concentration (MIC), Ab ATCC 19606 [1]: >32 µg/mL; Minimum inhibitory concentration (MIC), Ab FADDI-AB034 [1]: >32 µg/mL; Minimum inhibitory concentration (MIC), Ec FADDI-EC001 [2]: >32 µg/mL; Minimum inhibitory concentration (MIC), Ec FADDI-EC003 [2]: >32 µg/mL; Minimum inhibitory concentration (MIC), Ec FADDI-EC006 [2]: >32 µg/mL; Minimum inhibitory concentration (MIC), Pa ATCC 27853 [3]: >32 µg/mL; Minimum inhibitory concentration (MIC), Pa FADDI-PA022 [3]: >32 µg/mL; Minimum inhibitory concentration (MIC), Pa FADDI-PA025 [3]: >32 µg/mL
5 | colistin [reference compound] |  |  |  |  |  |  |  |  |  | Minimum inhibitory concentration, Ab A ATCC 17978 ([1]; Acinetobacter baumannii ATCC 17978, broth microdilution in CAMHB): 0.5 µg/mL; Minimum inhibitory concentration, Ab ATCC 19606 ([1]; Acinetobacter baumannii ATCC 19606, broth microdilution in CAMHB): 1 µg/mL; Minimum inhibitory concentration, Ab FADDI-AB034 ([1]; Acinetobacter baumannii FADDI-AB034, broth microdilution in CAMHB): 0.5 µg/mL; Minimum inhibitory concentration, Ec FADDI-EC001 ([2]; Enterobacter cloacae FADDI-EC001, broth microdilution in CAMHB): 0.25 µg/mL; Minimum inhibitory concentration, Ec FADDI-EC003 ([2]; Enterobacter cloacae FADDI-EC003, broth microdilution in CAMHB): <0.125 µg/mL; Minimum inhibitory concentration, Ec FADDI-EC006 ([2]; Enterobacter cloacae FADDI-EC006, broth microdilution in CAMHB): <0.125 µg/mL; Minimum inhibitory concentration, Pa ATCC 27853 ([3]; Pseudomonas aeruginosa ATCC 27853, broth microdilution in CAMHB): 1 µg/mL; Minimum inhibitory concentration, Pa FADDI-PA022 ([3]; Pseudomonas aeruginosa FADDI-PA022, broth microdilution in CAMHB): 1 µg/mL; Minimum inhibitory concentration, Pa FADDI-PA025 ([3]; Pseudomonas aeruginosa FADDI-PA025, broth microdilution in CAMHB): 2 µg/mL
